US9884874B2, “Bromodomain-inhibiting compounds and pharmaceutical composition comprising same for preventing or treating a cancer” (KAINOS MEDICINE, INC., priority 2014, dated 2018)

What was measured:
[1] = Animal pharmacokinetics in ICR mice; assay type: in vivo; settings: ICR, mouse, 10 mg/kg
Protocol: Pharmacokinetics of the compounds of 1, 2, 7, 8 11 and 15 were evaluated in ICR mice (6˜8 weeks, 20˜25 g) following intravenous (IV) administration at 10 mg/kg and per oral (PO) administration at 10 mg/kg dose level, respectively. Especially, the additional dose level of Compound 1 was 30 mg/kg.
For serum compound analysis, blood samples were collected by cardiac puncture over 24 hr time course. 20 μL of spiked plasma was added into a 96-well plate, adding ten volumes of internal standard (IS) in acetonitrile (ACN) to the obtained precipitated protein mixed thoroughly, centrifuged at 4,000 rpm for 10 min. 150 μL of supernatant thus obtained was transferred to another pre-labeled 96-well plate, mixed with 150 μL of water. 5 μL or 10 μL of the mixture was injected into the LC-MS system under the following conditions:
Column: API-4000+Waters UPLC (TCLM08);
Lower limit of quantification (LLOQ) was at 1 ng/mL. Pharmacokinetic parameters of half-life (T1/2), clearance (CL), maximum plasma concentration (Cmax), mean residence time (MRT) and bioavailability (F %), plasma exposure (AUC) of the compound were calculated using Phoenix WinNonlin 6.3 (non-compartmental model).

human BRD4 bromodomain 1 = human BRD4 bromodomain 1 (Homo sapiens (Human), UniProt O60885); experiment: Bromodomain binding assay (BRD4 Alpha-screen); settings: acetylated histone H4 peptide
Protocol: Bromodomain binding assays were carried out in Reaction Biology (PA, USA) to test the degrees of the inventive compounds in inhibiting the human BRD4 bromodomain 1 by Alpha-screen assay method.
Recombinant human BRD4 bromodomain 1 expressed in E. coli with N-terminal His-tag was used as the enzyme target.
A synthetic peptide ([…]-GSGSK-biotin) containing 1 to 21th amino acids of histone H4 acetylated at lysine 5, 8, 12 and 16 and conjugated to biotin was purchased from Millipore.
BRD4-1 (44 to 170th amino acids; Genbank Accession # NM_058243) was expressed in E. coli with N-terminal His-tag (see, Ni-NTA spin Kit Handbook (Qiagen), second edition, January, 2008). Nickel-Chelate ALPHA acceptor beads (Perkin Elmer) were used to specifically bind BRD4-1, and ALPHA streptavidin donor beads (Perkin Elmer) were used because they specifically recognized the biotinylated H4 peptide.
BRD binding assays were performed in a mixture comprising 50 mM Hepes (pH7.5), 100 mM NaCl, 0.05% CHAPS, 0.1% BSA, and 1% DMSO. After an assay reaction time of 60 min at 25° C., binding was measured with streptavidin donor beads and nickel-chelate acceptor beads. ALPHA signal was detected on Enspire (Ex/Em=680/520-620 nm). IC50 values were calculated from the fit of the dose-response curves. All IC50 values represent geometric mean values of a minimum of four determinations. These assays generally produced results within 3-fold of the reported mean.

[2] = tested on: MV4-11 (human leukemia cell line); experiment: Anti-proliferative activity test (CellTiter-Glo), MV4-11; assay type: cell-based; settings: second value of LnCAP/MV4-11 cell, read-out: Cell proliferation IC50 (MV4-11)
Protocol: (§1) IC50 (uM) of the compounds obtained in Examples 1 to 18 against hematological cancer cells and solid tumors was measured for identifying anti-proliferative activities.
(§2) A human prostatic adenocarcinoma cell line, LnCAP (ATCC®, CRL-1740) and human leukemia cell line MV4-11 (ATCC®, CRL-9591) were used to test the degrees of the compounds 1 to 18 in inhibiting the cancer cell growth. The testing cell concentration was adjusted to 6.7×10^3 cells/ml with a culture medium supplemented with 10% FBS, in the temperature of 37° C., 5% CO2 and 95% humidity. Culture media and FBS were purchased from GIBCO. 90 μL of cell suspensions thus obtained was added to two 96-well plates with the final cell density of 600 cells/well, followed by addition of 10 μL of culture medium to each well of plate. The plates were incubated overnight in a humidified incubator at 37° C. with 5% CO2.
(§3) Compounds 1 to 18 were each dissolved with dimethylsulfoxide (DMSO) or phosphate buffer solution (PBS) as a stock solution, and 200× solutions of test compound (2 mM) using DMSO were prepared. Then, the DMSO solution thus obtained was diluted 20-fold with culture medium or PBS to obtain 10× working solution. 10 μL of 10× working solution (drug solution) was dispensed to each well (triplicate for each concentration). The final concentration of DMSO in culture medium was 0.5% [v/v].
(§4) Cell viability was determined using CellTiter-Glo® (CTG) assay. 100 μL of CellTiter-Glo® was added to the equal volume of the cultured cells to read luminescence in EnVision Multi Label Reader.

OPM-2 (multiple myeloma) = experiment: Anti-proliferative activity, OPM-2; assay type: cell-based; settings: Homo sapiens, read-out: Cell proliferation, IC50
[3] = tested on: LnCAP (human prostatic adenocarcinoma cell line); experiment: Anti-proliferative activity test (CellTiter-Glo), LnCAP; assay type: cell-based; settings: first value of LnCAP/MV4-11 cell, read-out: Cell proliferation IC50 (LnCAP)
Protocol: as §1, §2, §3, §4

[4] = Mouse liver microsomal stability/clearance; assay type: in vitro ADME; settings: mouse liver microsomes; second value of Human/Mouse cell; read-out: Liver microsomal clearance (Mouse)
Protocol: (§5) Human and mouse liver microsomal clearance assays were carried out in CROWN Biosciences (Taicang, China). The human liver microsomes (Cat No. X008067, Lot No. KQB) and mouse liver microsomes (Cat No. M1000, Lot No. 1210302) were purchased from Celsis and Xenotech, respectively.
(§6) 5 μL of test compound stock solution was diluted with 495 μL of 1:1 Methanol/Water (final concentration: 100 μM, 50% MeOH) and combined with 534 μL of the respective liver microsome solution (final concentration: 1.111 μM, 0.555% MeOH). The final concentration of the liver microsome solution was 0.7 mg protein/mL.
(§7) Incubations of the liver microsome solutions were performed in a 96 well plate at 37° C. 90 μL of the liver microsome solutions were added to Blank, and 90 μL of working solution of the test compound was added to all plates except the Blank.
(§8) All plates thus obtained were warmed in water bath at 37° C. for 10 min, and 10 μL of NADPH co-factor solution comprising 42 mg of β-nicotinamide adenine dinucleotide phosphate (Sigma Cat. No. N0505 Lot 020M7009V), 84 mg of isocitric acid (Sigma Cat. No. 11252 Lot 119K1099) and 0.478 mL of isocitric dehydrogenase (Sigma Cat. No. 12002 Lot 086K7055, 15 units/mg protein, warmed in water bath at 37° C. for 5 min was added to the plates. The resulting plates were incubated at 37° C. in the following order: T60 (The test compounds were incubated with the liver microsomal solution and NADPH for 60 min at 37° C.), T30 (such as for 30 min.), and T10 (such as for 10 min.). 300 μL of a cold (4° C.) stop solution (acetonitrile (ACN) including 500 nM of tolbutamide as internal standard) and 10 μL of NADPH co-factor solution to starting plate (T0: 100% of the parent compound without any reaction) were added to the plates. The reaction was stopped by adding 300 μL of the cold (4° C.) stop solution to the other plates in the following order: T10 first, then T30 and T60.
(§9) The samples were centrifuged at 4,000 rpm for 20 min and transferred to Bioanalytical Services for liquid chromatography-mass spectrometry (LC-MS)/MS (Waters UPLC/API 4000, 10 μL injection) analysis.

SK-LU-1 (adenocarcinoma) = experiment: Anti-proliferative activity, SK-LU-1; assay type: cell-based; settings: Homo sapiens, SKLU-1 (Adenocarcinoma), read-out: Cell proliferation, IC50
[5] = Human liver microsomal stability/clearance; assay type: in vitro ADME; settings: human liver microsomes; first value of Human/Mouse cell; read-out: Liver microsomal clearance (Human)
Protocol: as §5, §6, §7, §8, §9

[6] = tested on: A375 (malignant melanoma); experiment: Anti-proliferative activity, A375; assay type: cell-based; settings: Homo sapiens, A-375, read-out: Cell proliferation, IC50

Row | SMILES | AUC ([1]; in vivo, IV) | MRT ([1]; in vivo, IV) | clearance ([1]; in vivo, IV) | AUC ([1]; in vivo, PO) | MRT ([1]; in vivo, PO) | bioavailability ([1]; in vivo, PO) | IC50 (human BRD4 bromodomain 1) | IC50 [2] | IC50 (OPM-2 (multiple myeloma)) | IC50 [3] | microsomal CLint at 1 µM [4] | IC50 (SK-LU-1 (adenocarcinoma)) | microsomal CLint at 1 µM [5] | IC50 [6] | AUC ([1]; plasma, IV) | MRT ([1]; plasma, IV) | clearance ([1]; plasma, IV) | AUC ([1]; plasma, PO) | MRT ([1]; plasma, PO) | bioavailability ([1]; plasma, PO)
1 | CCS(=O)(=O)OC[C@@H]1N=C(c2ccc(Cl)cc2)c2cc(OC)ccc2-n2c(C)nnc21 [Compound 2, (R)-(6-(4-chlorophenyl)-8-methoxy-1-methyl-4H-benzo[f][1,2,4]triazolo[4,3-a][1,4]diazepin-4-yl)methyl ethanesulfonate] | 73 µM·h | 3.9 h | 4.9 mL/min/kg | 66 µM·h | 4.1 h | 89.8% | 0.22 µM | 0.41 µM | 0.65 µM | 0.6 µM | 8.1 µL/min/mg | 1.45 µM | 1.9 µL/min/mg | 9.3 µM |  |  |  |  |  | 
2 | COc1ccc2c(c1)C(c1ccc(C#N)cc1)=N[C@@H](COS(C)(=O)=O)c1nnc(C)n1-2 [Compound 7, (R)-(6-(4-cyanophenyl)-8-methoxy-1-methyl-4H-benzo[f][1,2,4]triazolo[4,3-a][1,4]diazepin-4-yl)methyl methanesulfonate] | 17.3 µM·h |  | 22.5 mL/min/kg | 8.19 µM·h |  | 47.4% | 0.23 µM | 3.34 µM |  | 0.83 µM | 3.4 µL/min/mg |  | 2.1 µL/min/mg |  |  |  |  |  |  | 
3 | COc1ccc2c(c1)C(c1ccc(Cl)cc1)=N[C@@H](COS(N)(=O)=O)c1nnc(C)n1-2 [Compound 8, (R)-(6-(4-chlorophenyl)-8-methoxy-1-methyl-4H-benzo[f][1,2,4]triazolo[4,3-a][1,4]diazepin-4-yl)methyl sulfamate] | 41 µM·h |  | 9 mL/min/kg | 31.5 µM·h |  | 62.3% | 0.22 µM | 1.49 µM |  | 0.96 µM | 5 µL/min/mg |  | 5 µL/min/mg |  |  |  |  |  |  | 
4 | Cc1nnc2n1-c1ccc(-c3cnn(C)c3)cc1C(c1ccc(Cl)cc1)=N[C@H]2COS(C)(=O)=O [Compound 11, (R)-(6-(4-chlorophenyl)-1-methyl-8-(1-methyl-1H-pyrazol-4-yl)-4H-benzo[f][1,2,4]triazolo[4,3-a][1,4]diazepin-4-yl)methyl methanesulfonate] | 20 µM·h |  | 16.8 mL/min/kg | 11.7 µM·h |  | 58.4% | 0.087 µM | 0.32 µM |  | 0.19 µM | 8.6 µL/min/mg |  | 8.6 µL/min/mg |  |  |  |  |  |  | 
5 | Cc1sc2c(c1C)C(c1ccc(Cl)cc1)=N[C@@H](COS(C)(=O)=O)c1nnc(C)n1-2 [Compound 15, (R)-(4-(4-chlorophenyl)-2,3,9-trimethyl-6H-thieno[3,2-f][1,2,4]triazolo[4,3-a][1,4]diazepin-6-yl)methyl methanesulfonate] |  |  |  |  |  |  | 0.1 µM | 0.5 µM |  | 0.48 µM | 22 µL/min/mg |  | 20 µL/min/mg |  | 27 µM·h | 1.9 h | 13.5 mL/min/kg | 31 µM·h | 2.5 h | 105%
